Patent US20230190844A1, “COMPOSITION AND METHOD FOR TREATING CANCER WITH CANNABINOIDS” (CANNABICS PHARMACEUTICALS INC., priority 2020, published 2023)

Experiments:
[1] = tested on: cells of human colon cancer biopsy; test: Cell viability of human colon cancer biopsies; assay type: cell-based; settings: CBDV 23.5 μM, CBG 20 μM, alone or combined
Method: The anti-tumor effect of combinations of cannabinoids CBCA, CBDV, CBDVA, THCV and CBGA on human colon cancer biopsies was tested. […] The obtained cell viability inhibition produced synergistic effects.
Table 18 illustrates (shown also graphically at FIG. 5A) the synergistic anti-tumor effect of a combination of the cannabinoids THCV (at a concentration of 24 μM) and CBCA (at a concentration of 14.5 μM) on colon cancer biopsies.
FIG. 6 illustrates graphically the combination of CBGA and CBDV on colon cancer biopsies taken from a patient. The concentration of each component was: CBGA (X2-51.2 μM), CBGA (X1-25.6 μM), CBDV (X2-47 μM), […].

HCT116 cells = test: CellTiter-Glo (CTG) cell viability, HCT-116
Method: (§1) The colon cancer cell lines RKO, and HCT116 were exposed to various cannabinoid combinations, at 37° C. for 48 h. The viability of the tested cells was examined. Further, synergism was evaluated using the Bliss equation.
(§2) CBDV and CBGA were tested at concentrations of 46.9 μM and 51.2 μM, respectively (shown as X2 in FIGS. 4A-4B). The effect of contacting each cannabinoid on the cells at half the concentration (i.e., 23.4 μM and 25.6 μM for CBDV and CBGA, respectively) was further tested (shown as X1 in FIGS. 4A-4B). Mixtures of CBDV and CBGA each at a X1 concentration were further prepared (“low concentration solutions”). The effect of the low concentration solution on the viability of the cancer cells was tested. The testing of the effect of each solution on the cancer cells was determined by incubating the cells with each cannabinoid solution as well as a standard (control) comprising DMSO only at 37° C. for 48 h and cell viability was measured by CTG viability assay using a Varioskan™ LUX multimode microplate reader.
(§3) FIGS. 7A-7B illustrate the human colon cell lines (HCT116 and RKO) that were incubated with CBGA at a concentration of 35 μM, CBDV at a concentration of 25 μM, Capecitabine at a concentration of 250 μM, and a combination thereof.

RKO cells = test: CellTiter-Glo (CTG) cell viability, RKO
Method: as §1, §2, §3

HT-29 colon cancer cells = test: CellTiter-Glo (CTG) cell viability, HT-29; assay type: cell-based, human; settings: CBDV 23.5 μM, CBGA 25.6 μM, THC-d8 17.5 μM; 48 hours; FIGS. 1A-1B
Method: The colon cancer cell line HT-29 was exposed to each of CBDV (at a concentration of 23.5 μM) and CBGA (at a concentration of 25.6 μM) alone, and a combination thereof and to each of CBGA (at a concentration of 25.6 μM) and THC-d8 (at a concentration of 17.5 μM) alone, and a combination thereof at 37° C. for 48 hours. The viability of the tested cells was examined. The following Tables 4 and 5 illustrate the obtained results (shown also graphically at FIGS. 1A and 1B).

A549 lung cancer cells = test: CellTiter-Glo (CTG) cell viability, A549; assay type: cell-based; settings: CBDV 23.5 μM, CBGA 25.6 μM, CBDVA 25.6 μM, THC-d8 17.5 μM; 48 hours; FIGS. 2A-2B
Method: The lung cancer cell line A549 was exposed to each of CBDV (at a concentration of 23.5 μM) and CBGA (at a concentration of 25.6 μM) alone, and a combination thereof at 37° C. for 48 hours. The viability of the tested cells was examined. The following Table 6 illustrates the obtained results (shown also graphically in FIGS. 2A-2B).

[2] = tested on: MCF-7 breast cancer cells; test: CellTiter-Glo (CTG) cell viability, MCF-7; assay type: cell-based; settings: CBDV 23.5 μM, CBGA 20 μM, CBDVA 17.5 μM, THC-d8 17.5 μM; 48 hours; FIGS. 3A-3B
Method: The breast cancer cell line MCF-7 was exposed to each of CBDV (at a concentration of 23.5 μM) and CBGA (at a concentration of 20 μM) alone, and to a combination thereof at 37° C. for 48 hours. The viability of the tested cells was examined. The following Table 8 illustrates the obtained results (shown also graphically in FIGS. 3A-3B).

CT26 cells = test: Cell viability at varying CBGA:CBDV ratios, CT26; settings: Mus musculus, CT26, read-out: % Cells Viability
Method: (§4) Human colon cell lines (SC-CO1, RKO, and HCT116) and a murine cell line (CT26) were incubated with varying molar ratios between CBGA and CBDV of 1:3.5 to 8.5:1. Cells' viability and corresponding synergy rankings were determined.

SK-CO1 cells = test: Cell viability at varying CBGA:CBDV ratios, SK-CO1; settings: Homo sapiens, SK-CO-1, read-out: % Cells Viability
Method: as §4

[3] = Homo sapiens, HCT-116, read-out: % Cells Viability
[4] = Homo sapiens, RKO, read-out: % Cells Viability

SMILES | growth inhibition / anti-cancer effect in words (HT-29 colon cancer cells) | growth inhibition / anti-cancer effect in words (A549 lung cancer cells) | growth inhibition / anti-cancer effect in words [2] | viability at 10 µM (HCT116 cells; [3]) | viability at 15 µM (HCT116 cells; [3]) | viability at 25 µM (HCT116 cells; [3]) | viability at 30 µM (HCT116 cells; [3]) | viability at 35 µM (HCT116 cells; [3]) | viability at 10 µM (RKO cells; [4]) | viability at 15 µM (RKO cells; [4]) | viability at 25 µM (RKO cells; [4]) | viability at 30 µM (RKO cells; [4]) | viability at 35 µM (RKO cells; [4]) | viability at 10 µM (CT26 cells) | viability at 15 µM (CT26 cells) | viability at 25 µM (CT26 cells) | viability at 30 µM (CT26 cells) | viability at 35 µM (CT26 cells) | viability at 10 µM (SK-CO1 cells) | viability at 15 µM (SK-CO1 cells) | further results
CCCCCc1cc(O)c(C/C=C(\C)CCC=C(C)C)c(O)c1 [CBG] | – | – | – | – | – | – | – | – | – | – | – | – | – | – | – | – | – | – | – | – | Viability [1]: 84
CCCCCOC(=O)Nc1nc(=O)n([C@@H]2O[C@H](C)[C@@H](O)[C@H]2O)cc1F [Capecitabine, reference compound] | – | – | – | – | – | – | – | – | – | – | – | – | – | – | – | – | – | – | – | – | anti-cancer / toxicity effect on the cells in words (HCT116 cells; FIG. 7A, CBGA 35 μM, CBDV 25 μM, Capecitabine 250 μM): no toxicity effect; anti-cancer / toxicity effect on the cells in words (RKO cells; FIG. 7B, CBGA 35 μM, CBDV 25 μM, Capecitabine 250 μM): no toxicity effect
CCCCCc1cc(O)c(C/C=C(\C)CCC=C(C)C)c(O)c1C(=O)O [CBGA, 3-[(2E)-3,7-dimethylocta-2,6-dienyl]-2,4-dihydroxy-6-pentylbenzoic acid] | slight growth inhibition effect | slight growth inhibition effect | slight growth inhibition effect | 115% | 112% | 104% | 97% | 90% | 119% | 119% | 94% | 75% | 59% | 102% | 102% | 46% | 22% | 21% | 108% | 110% | viability at 25.6 µM (HCT116 cells; Homo sapiens, HCT-116, 48 h): 105%; viability at 51.2 µM (HCT116 cells; Homo sapiens, HCT-116, 48 h): 84%; viability at 42.5 µM (HCT116 cells; [3]): 72%; viability at 25.6 µM (RKO cells; Homo sapiens, RKO, 48 h): 103%; viability at 51.2 µM (RKO cells; Homo sapiens, RKO, 48 h): 53%; viability at 42.5 µM (RKO cells; [4]): 41%; viability at 42.5 µM (CT26 cells): 11%; viability at 25 µM (SK-CO1 cells): 101%; viability at 30 µM (SK-CO1 cells): 91%; viability at 35 µM (SK-CO1 cells): 76%; viability at 42.5 µM (SK-CO1 cells): 52%
C=C(C)[C@H]1CCC(C)=C[C@@H]1c1c(O)cc(CCC)cc1O [CBDV, 2-((1S,6S)-3-methyl-6-(prop-1-en-2-yl)cyclohex-2-enyl)-5-propylbenzene-1,3-diol] | slight growth inhibition effect | slight growth inhibition effect | slight growth inhibition effect | 109% | 101% | 84% | 71% | 64% | 108% | 88% | 62% | 53% | 48% | 109% | 113% | 108% | 99% | 90% | 103% | 99% | viability at 23.4 µM (HCT116 cells; Homo sapiens, HCT-116, 48 h): 94%; viability at 46.9 µM (HCT116 cells; Homo sapiens, HCT-116, 48 h): 64%; viability at 5 µM (HCT116 cells; [3]): 113%; viability at 23.4 µM (RKO cells; Homo sapiens, RKO, 48 h): 92%; viability at 46.9 µM (RKO cells; Homo sapiens, RKO, 48 h): 38%; viability at 5 µM (RKO cells; [4]): 112%; viability at 5 µM (CT26 cells): 108%; viability at 5 µM (SK-CO1 cells): 104%; viability at 25 µM (SK-CO1 cells): 99%; viability at 30 µM (SK-CO1 cells): 97%; viability at 35 µM (SK-CO1 cells): 96%
